Test results from ChEMBL document CHEMBL2146401, “Synthesis and biological evaluation of novel homochiral carbocyclic nucleosides from 1-amino-2-indanols” (Bioorg Med Chem, 2012).

Tests used:
[1] = Cytotoxicity against african green monkey Vero cells assessed as cell viability after 2 days by MTS/PMS assay; type: cell-based; conditions: chlorocebus sabaeus
[2] = system: Hepatitis B virus; assay: Antiviral activity against Hepatitis B virus infected in HepG2(2.2.15) cells assessed as reduction in HBsAg level at 100 uM after 9 days by ELISA relative to control; type: functional; conditions: HepG2 2.2.15, 216 h
[3] = Cytotoxicity against bovine MDBK cells assessed as cell viability after 3 days by MTS/PMS assay; type: cell-based, Bos taurus; conditions: cattle
[4] = Cytotoxicity against human HepG2(2.2.15) cells assessed as cell viability after 9 days by MTS/PMS assay; type: cell-based
[5] = Antiviral activity against Bovine viral diarrhea virus 1-NADL ATCC VR534 infected in MDBK cells assessed as reduction of viral cytopathic effect at 100 uM after 2 days by MTS assay relative to control; type: functional; conditions: Bovine viral diarrhea virus isolates and strains, 48 h
[6] = system: Human alphaherpesvirus 1; assay: Antiviral activity against Herpes simplex virus (type 1 / strain F) infected in Vero cells assessed as reduction of number of viral plaques at 100 uM after 2 days relative to control; type: functional; conditions: Human alphaherpesvirus 1, strain F, 48 h
[7] = Cytotoxicity against human HepG2(2.2.15) cells assessed as cell viability after 72 hrs by MTS/PMS assay; type: cell-based
[8] = system: Human alphaherpesvirus 1; assay: Antiviral activity against Herpes simplex virus (type 1 / strain F) infected in Vero cells assessed as reduction of number of viral plaques at 31.25 uM after 2 days relative to control; type: functional; conditions: Human alphaherpesvirus 1, strain F, 48 h
[9] = Cytotoxicity against african green monkey Vero cells assessed as cell viability after 72 hrs by MTS/PMS assay; type: cell-based; conditions: chlorocebus sabaeus
[10] = Cytotoxicity against bovine MDBK cells assessed as cell viability after 72 hrs by MTS/PMS assay; type: cell-based, Bos taurus; conditions: cattle
[11] = system: Hepatitis B virus; assay: Antiviral activity against Hepatitis B virus infected in HepG2(2.2.15) cells assessed as reduction in HBsAg level at 20 uM after 9 days by ELISA; type: functional; conditions: HepG2 2.2.15, 216 h
[12] = Antiviral activity against Bovine viral diarrhea virus 1-NADL ATCC VR534 infected in MDBK cells assessed as reduction of viral cytopathic effect after 2 days bt MTS assay; type: functional, cell-based; conditions: Bovine viral diarrhea virus isolates and strains, 48 h
[13] = system: Human alphaherpesvirus 1; assay: Antiviral activity against Herpes simplex virus (type 1 / strain F) infected in Vero cells assessed as reduction of number of viral plaques after 2 days; type: functional, organism-based; conditions: Human alphaherpesvirus 1, strain F, 48 h

Structure (SMILES) | CC50 at 48 h [1] [µM] | inhibition at 100 µM [2] [%] | CC50 at 72 h [3] [µM] | CC50 at 216 h [4] [µM] | inhibition at 100 µM [6] [%] | other results
Oc1ncnc2c1nnn2[C@@H]1c2ccccc2C[C@H]1O | > 500 | 16.6 | > 500 | > 500 |  | 
Nc1ncnc2c1nnn2[C@@H]1c2ccccc2C[C@@H]1O | 202 | 17.6 | > 500 | > 500 |  | inhibition at 100 µM [5]: 19.4%
Nc1ncnc2c1nnn2[C@H]1c2ccccc2C[C@@H]1O | 311 | 37.2 | > 500 | > 500 | 14.5 | 
Oc1ncnc2c1nnn2[C@H]1c2ccccc2C[C@@H]1O | > 500 | 25.2 | > 500 | > 500 |  | 
Oc1ncnc2c1nnn2[C@@H]1c2ccccc2C[C@@H]1O | > 500 | 35.3 | > 500 | > 500 | 12.8 | 
O[C@H]1Cc2ccccc2[C@@H]1n1cnc2c(Cl)ncnc21 | > 500 | 14.2 | > 500 | > 500 | 16.2 | 
Oc1ncnc2c1nnn2[C@H]1c2ccccc2C[C@H]1O | > 500 | 27.7 | > 500 | > 500 | 15.8 | 
O[C@@H]1Cc2ccccc2[C@H]1n1cnc2c(Cl)ncnc21 | > 500 | 22.6 | > 500 | > 500 | 7.2 | 
O[C@H]1Cc2ccccc2[C@H]1n1cnc2c(Cl)ncnc21 | > 500 | 30.8 | > 500 | > 500 | 23.2 | inhibition at 100 µM [5]: 19.7%
Nc1ncnc2c1nnn2[C@@H]1c2ccccc2C[C@H]1O | > 500 | 42.1 | > 500 | > 500 | 7.8 | 
Nc1ncnc2c1nnn2[C@H]1c2ccccc2C[C@H]1O | > 500 | 41.4 | > 500 | > 500 | 20.9 | inhibition at 100 µM [5]: 42.1%
O[C@@H]1Cc2ccccc2[C@@H]1n1cnc2c(Cl)ncnc21 |  |  |  |  |  | CC50 at 72 h [7]: 308 µM; inhibition at 31.25 µM [8]: 20.9%; CC50 at 72 h [9]: 254 µM; CC50 at 72 h [10]: 14.3 µM
Nc1ccn([C@@H]2CS[C@H](CO)O2)c(=O)n1 [LAMIVUDINE] |  |  |  |  |  | inhibition at 20 µM [11]: 45%
NC(=O)c1ncn([C@@H]2O[C@H](CO)[C@@H](O)[C@H]2O)n1 [RIBAVIRIN] |  |  |  |  |  | EC50 [12]: 4.6 µM
Nc1nc2c(ncn2COCCO)c(=O)[nH]1 [ACYCLOVIR] |  |  |  |  |  | EC50 [13]: 0.5 µM
